Measured values published in patent US20230080054A1 (ILDONG PHARMACEUTICAL CO., LTD., priority 2021, published 2023).

Key:
human ANO6 [1] = target: T1, human ANO6 (Homo sapiens, UniProt Q4KMQ2); experiment: YFP quenching assay (ANO6 ion channel activity); assay type: cell-based; conditions: test compound 1 μM, 10 μM ionomycin, read-out: Inhibition Level 1 μM
T1 construct: expressed in transfected cells
T1 sequence (Q4KMQ2 1-931 isoform Q4KMQ2-2): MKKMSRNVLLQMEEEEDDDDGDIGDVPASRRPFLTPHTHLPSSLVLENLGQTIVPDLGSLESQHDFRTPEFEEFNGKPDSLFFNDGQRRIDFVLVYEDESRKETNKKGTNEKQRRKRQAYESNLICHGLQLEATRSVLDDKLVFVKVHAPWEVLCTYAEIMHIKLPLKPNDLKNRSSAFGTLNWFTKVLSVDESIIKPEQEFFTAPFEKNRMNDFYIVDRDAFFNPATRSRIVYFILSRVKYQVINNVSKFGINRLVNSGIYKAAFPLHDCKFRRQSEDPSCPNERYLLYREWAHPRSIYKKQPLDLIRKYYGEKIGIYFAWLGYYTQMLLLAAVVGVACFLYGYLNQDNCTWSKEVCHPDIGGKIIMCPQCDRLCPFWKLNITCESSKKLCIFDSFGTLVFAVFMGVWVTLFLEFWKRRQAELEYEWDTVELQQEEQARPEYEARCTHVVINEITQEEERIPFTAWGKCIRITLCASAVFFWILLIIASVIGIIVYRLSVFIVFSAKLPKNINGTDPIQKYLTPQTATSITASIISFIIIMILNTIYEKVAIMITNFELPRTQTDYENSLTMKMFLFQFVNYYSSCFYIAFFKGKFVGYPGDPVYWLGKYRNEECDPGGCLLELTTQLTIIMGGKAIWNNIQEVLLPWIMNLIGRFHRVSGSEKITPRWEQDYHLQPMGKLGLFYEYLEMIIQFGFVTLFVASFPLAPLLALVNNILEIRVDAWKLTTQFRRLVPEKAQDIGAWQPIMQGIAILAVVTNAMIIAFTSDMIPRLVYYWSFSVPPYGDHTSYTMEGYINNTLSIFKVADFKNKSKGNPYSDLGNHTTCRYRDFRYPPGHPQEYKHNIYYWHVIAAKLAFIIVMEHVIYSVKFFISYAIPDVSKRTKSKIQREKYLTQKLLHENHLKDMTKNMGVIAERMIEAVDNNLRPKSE
Method in brief: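 FRT cells stably expressing human ANO6 and YFP-H148Q/I152L/F46L, preincubated 10 min at 40° C with compounds (1% DMSO) in PBS. Quench read every 0.4 s after injecting 140 mM SCN- with 10 μM ionomycin; % inhibition from the 3.6–7.6 s fluorescence difference, normalised to no-ionomycin (100%) and ionomycin-only (0%) wells, duplicate or triplicate.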

human ANO6 [2] = target: T1, human ANO6; experiment: LACT C2 assay (phosphatidylserine scramblase function assay); assay type: cell-based; conditions: FRT cells expressing human ANO6, 10 μM ionomycin; for inhibition at 0.1 µM: test compound 100 nM, read-out: Inhibition Level 100 nM; for inhibition at 1 µM: test compound 1 μM, read-out: Inhibition Level 1 μM
Method in brief: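 Inhibition was normalised between ionomycin-only (0%) and untreated (100%) wells, with triplicates averaged. Readout was background-corrected Lact-C2-GFP (500 nM) fluorescence from imaged cells. The cells were FRT cells stably expressing human ANO6, given compound at 1% DMSO for 10 min before a 10 min 10 μM ionomycin challenge.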

O=C(N[C@@H]1C[C@H]1c1ccccc1)c1cccc(Nc2ncc(-c3cccc(F)c3)cn2)c1 [Compound 119, 3-{[5-(3-fluorophenyl)pyrimidin-2-yl]amino}-N-[(1R,2S)-2-phenylcyclopropyl]benzamide]
≥ 60%: inhibition at 1 µM (human ANO6 [1]) | inhibition at 0.1 µM (human ANO6 [2]) | inhibition at 1 µM (human ANO6 [2])

O=C(NCCC1CCCCC1)c1cccc(Nc2ncc(-c3cccc(F)c3)cn2)c1 [Compound 80, N-(2-cyclohexylethyl)-3-{[5-(3-fluorophenyl)pyrimidin-2-yl]amino}benzamide]
≥ 60%: inhibition at 1 µM (human ANO6 [1]) | inhibition at 0.1 µM (human ANO6 [2]) | inhibition at 1 µM (human ANO6 [2])

O=C(N[C@@H]1C[C@H]1c1ccccc1)c1cccc(Nc2ccc(-c3cccc(F)c3)cn2)c1 [Compound 123, 3-{[5-(3-fluorophenyl)pyridin-2-yl]amino}-N-[(1R,2S)-2-phenylcyclopropyl]benzamide]
≥ 60%: inhibition at 1 µM (human ANO6 [1]) | inhibition at 0.1 µM (human ANO6 [2]) | inhibition at 1 µM (human ANO6 [2])

O=C(Nc1cccc(F)c1)c1cccc(Nc2ccc(-c3cccc(F)c3)cn2)c1 [Compound 122, N-(3-fluorophenyl)-3-{[5-(3-fluorophenyl)pyridin-2-yl]amino}benzamide]
≥ 60%: inhibition at 1 µM (human ANO6 [1]) | inhibition at 0.1 µM (human ANO6 [2]) | inhibition at 1 µM (human ANO6 [2])

O=C(NCCc1cccc(C(F)(F)F)c1)c1cccc(Nc2ncc(-c3cccc(F)c3)cn2)c1 [Compound 79, 3-{[5-(3-fluorophenyl)pyrimidin-2-yl]amino}-N-{2-[3-(trifluoromethyl)phenyl]ethyl}benzamide]
≥ 60%: inhibition at 1 µM (human ANO6 [1]) | inhibition at 0.1 µM (human ANO6 [2]) | inhibition at 1 µM (human ANO6 [2])

O=C(Nc1ccc(Cl)c(Cl)c1)c1cccc(Nc2ncc(-c3cccc(F)c3)cn2)c1 [Compound 118, N-(3,4-dichlorophenyl)-3-{[5-(3-fluorophenyl)pyrimidin-2-yl]amino}benzamide]
≥ 60%: inhibition at 1 µM (human ANO6 [1]) | inhibition at 0.1 µM (human ANO6 [2]) | inhibition at 1 µM (human ANO6 [2])

O=C(N[C@@H]1C[C@H]1c1ccccc1)c1cccc(Nc2ccc(-c3ccccc3)nn2)c1 [Compound 68, N-[(1R,2S)-2-phenylcyclopropyl]-3-[(6-phenylpyridazin-3-yl)amino]benzamide]
≥ 60%: inhibition at 1 µM (human ANO6 [1]) | inhibition at 0.1 µM (human ANO6 [2]) | inhibition at 1 µM (human ANO6 [2])
